{
  "source": "patent US10975385B2",
  "about": "“Methods of modulating stomata conductance and plant expression constructs for executing same” (The State of Israel, Ministry of Agriculture & Rural …, priority 2011, dated 2021)",
  "key": {"guard cells": {"tested_on": "guard cells", "experiment": "Nitric oxide production in guard cells of epidermal peels (DAF-2DA fluorescence)", "format": "cell-based, tomato", "settings": "for effect on NO levels in guard cells: 100 mM sorbitol or 20 mM NAG with 100 mM Suc; for NO production and stomatal closure in ABA-deficient mutant: Sitiens epidermal peels, 100 mM Suc or 100 μM ABA", "description": "Detection of nitric oxide (NO) levels in stomata is performed as follows: Epidermal peels are prepared and incubated in MES buffer [25 mM MES-KOH, pH=6.15 and 10 mM KCl (MES, 2-(N-morpholino)-ethane sulfonic acid; Sigma-Aldrich] with or without 20 mM NAG, for 2.5 h under steady light, and then loaded with 60 μM NO indicator dye, DAF-2DA (4, 5-diaminofluorescein diacetate; Sigma-Aldrich), diluted in MES buffer with or without 20 mM N-acetyl glucosamine (NAG, Sigma-Aldrich) and left for an additional 50 min. Then, the peels are washed with MES 3 times and re-incubated for 30 min in the buffer (control, set as 100% fluorescence) or in 100 mM sorbitol, 100 mM sucrose and 20 mM NAG. The peels are then photographed under a microscope (see Materials and Methods, “Confocal microscopy imaging”). Three to four biological repeats containing 20-30 stomata each are included in each experiment and each experiment is repeated several times. Images are analyzed using the ImageJ software histogram tool to evaluate fluorescence intensity and the fit-ellipse tool to determine stomatal aperture. It is possible to use epidermal strips from different species, use different treatments solutions and different timings, all to our decision. Images are acquired using the OLYMPUS IX 81 (Japan) inverted laser scanning confocal microscope (FLUOVIEW 500) equipped with a 488-nm argon ion laser and a 60X1.0 NA PlanApo water immersion objective. Nitric oxide- DAF-2DA (4, 5-diaminofluorescein diacetate; Sigma-Aldrich) fluorescence is excited by 488-nm light and the emission is collected using a BA 505-525 filter. GFP is excited by 488-nm light and the emission is collected using a BA 505-525 filter. A BA 660 IF emission filter is used to observe chlorophyll autofluorescence. Confocal optical sections are obtained at 0.5-μm increments. The images are color-coded green for GFP and magenta for chlorophyll autofluorescence."}, "[1]": {"tested_on": "stomata (stomatal aperture)", "experiment": "Stomatal aperture of intact leaves immersed in artificial apoplastic sap, measured on epidermal imprints", "format": "cell-based, tomato (Solanum lycopersicum cv. MP-1)", "settings": "3 h", "description": "Stomatal aperture and density are determined using the rapid imprinting technique described by […] and Sack (2002). This approach allows to reliably score hundreds of stomata from each experiment, each of which is sampled at the same time. Light-bodied vinylpolysiloxane dental resin (Heraeus-Kulzer, Hanau, Germany) is attached to the abaxial leaf side and then removed as soon as it dries (1 min). The resin epidermal imprints are than covered with nail polish, which removed once it had dried out and serves as a mirror image of the resin imprint. The nail-polish imprints are put on glass cover slips and photographed under bright-field microscope. Stomata images are later analyzed to determine aperture size using the ImageJ software (World Wide Web (dot) rsb (dot) info (dot) nih (dot) gov/ij/) fit-ellipse tool or any other software that can process and analyze images. A microscopic ruler is used for the size calibration. Additional information can be obtained from the software such as stomata width, length, area, perimeter etc. To assess stomatal responses, leaflets are cut and immediately immerse in artificial xylem sap solution (AXS) (Wilkinson and Davies, 1997) containing 100 mM sucrose (Duchefa Biochemie) with or without 20 mM N-acetyl glucosamine (NAG, Sigma-Aldrich), 100 mM or 200 mM glucose (Duchefa Biochemie), 100 mM or 200 mM fructose (Sigma-Aldrich), 100 mM 2-deoxyglucose (Sigma-Aldrich), 10 mM or 100 mM mannose (Sigma-Aldrich), 100 mM sorbitol (Sigma-Aldrich) or 100 mM or 200 mM mannitol (Duchefa Biochemie). The sorbitol and mannitol treatments serve as non-metabolic osmotic controls. Imprints are taken 3 h after immersion and stomatal aperture is analyzed. Different plant species can be used as well as, AXS solutions, treatment solutions and different timings to our decision."}},
  "data": [
    {"smiles": "CC(=O)N[C@H]1C(O)O[C@H](CO)[C@@H](O)[C@@H]1O", "note": "(stereo partly drawn) [NAG, N-acetyl glucosamine]", "values": [
      {"measurement": "time to resumption of NO production after washing out NAG", "setting": "guard cells; NAG washed out with 100 mM Suc", "result": "less than 30 min"},
      {"measurement": "effect on NO levels in guard cells", "setting": "guard cells; WT epidermal peels, 30 min", "result": "prevented the production of NO"},
      {"measurement": "effect on Suc-induced stomatal closure of AtHXK1-expressing plants", "setting": "[1]; HK4 leaves, 100 mM Suc with 20 mM NAG", "result": "abolished the closing effect of Suc"},
      {"measurement": "effect on Suc-induced stomatal closure", "setting": "[1]; WT leaves, 100 mM Suc with 20 mM NAG", "result": "almost completely abolished the effect of Suc and prevented stomatal closure"}
    ]},
    {"smiles": "CC1=CC(=O)CC(C)(C)[C@@]1(O)/C=C/C(C)=C\\C(=O)O", "note": "[ABA, abscisic acid]", "values": [
      {"measurement": "NO production and stomatal closure in ABA-deficient mutant", "setting": "guard cells; 30 min", "result": "did trigger the production of NO"}
    ]},
    {"smiles": "O=CC[C@@H](O)[C@H](O)[C@H](O)CO", "note": "[2-dG, 2-deoxyglucose]", "values": [
      {"measurement": "effect on stomatal aperture", "setting": "[1]; WT leaves, vs mannitol osmotic control", "result": "reduced stomatal aperture"}
    ]},
    {"smiles": "OC[C@H]1O[C@@](CO)(O[C@H]2O[C@H](CO)[C@@H](O)[C@H](O)[C@H]2O)[C@@H](O)[C@@H]1O", "note": "[Suc, sucrose]", "values": [
      {"measurement": "effect on guard-cell fluorescence of AtHXK1-expressing line", "setting": "guard cells; HK4 epidermal peels, Suc added", "result": "even more intense fluorescence"},
      {"measurement": "NO production and stomatal closure in ABA-deficient mutant", "setting": "guard cells; 30 min", "result": "did not result in any increase in fluorescence or stomatal closure"},
      {"measurement": "increase in guard-cell fluorescence (NO levels)", "setting": "guard cells; WT epidermal peels, 100 mM, 30 min", "result": 3.5, "unit": "fold"},
      {"measurement": "effect on stomatal aperture of AtHXK1-expressing plants", "setting": "[1]; HK4 leaves, 100 mM Suc", "result": "caused the stomata to close even further"},
      {"measurement": "decrease of stomatal aperture size relative to sorbitol", "setting": "[1]; WT tomato leaflets, 100 mM Suc vs 100 mM sorbitol", "result": 29, "unit": "%"}
    ]},
    {"smiles": "OC[C@@H](O)[C@@H](O)[C@H](O)[C@@H](O)CO", "note": "[sorbitol]", "values": [
      {"measurement": "effect on NO levels in guard cells", "setting": "guard cells; WT epidermal peels, 30 min", "result": "had no effect on NO levels"}
    ]}
  ]
}
